Laboratory results: patent US4031210A, “Antibiotic aminoglycosides, processes of preparation and pharmaceutical compositions” (Roussel-UCLAF, priority 1974, dated 1977)
Counter-ions that a name gives are not always drawn. Like-named read-outs stand apart in the source and are kept apart here.

Tests used:
[1] = tested on: Salmonella typhimurium 420; test: In vitro antibacterial activity, dilution method in liquid medium; type: cell-based; details: Salmonella enterica, 37°, expressed as base, read-out: minimal inhibiting concentration (MIC)
Procedure: (§1) The antibacterial activity has been measured in vitro by the dilution method in liquid medium. A series of tubes is prepared in which is distributed the same quantity of nutritive medium. Increasing quantities of the antibiotic under study are distributed, then each tube is innoculated with a bacterial strain as indicated in the table. After a 18, 24 or 48 hour incubation in a 37° oven, inhibition of the bacterial growth is appraised by transillumination which determines the minimal inhibiting concentration (MIC) of the products expressed as μg/ml of base in the table. In the following table, the product of Example 2 is identified as Product A.

Escherichia coli 9 911 = test: as above; type: cell-based; details: 37°, expressed as base, read-out: minimal inhibiting concentration (MIC)
Procedure: as §1

[2] = tested on: Enterobacter aerogenes Co11; test: as above; type: cell-based; details: Klebsiella aerogenes, 37°, expressed as base, read-out: minimal inhibiting concentration (MIC)
Procedure: as §1

[3] = tested on: Staphylococcus aureus 40 511; test: as above; type: cell-based; details: 37°, expressed as base, read-out: minimal inhibiting concentration (MIC)
Procedure: as §1

[4] = tested on: Staphylococcus aureus 38 691; test: as above; type: cell-based; details: 37°, expressed as base, read-out: minimal inhibiting concentration (MIC)
Procedure: as §1

[5] = tested on: Staphylococcus aureus 40 821; test: as above; type: cell-based; details: 37°, expressed as base, read-out: minimal inhibiting concentration (MIC)
Procedure: as §1

[6] = tested on: Staphylococcus aureus 40 481; test: as above; type: cell-based; details: 37°, expressed as base, read-out: minimal inhibiting concentration (MIC)
Procedure: as §1

[7] = tested on: Salmonella typhimurium 1 374; test: as above; type: cell-based; details: Salmonella enterica, 37°, expressed as base, read-out: minimal inhibiting concentration (MIC)
Procedure: as §1

[8] = tested on: Serratia marcesens CoB 35; test: as above; type: cell-based; details: 37°, expressed as base, read-out: minimal inhibiting concentration (MIC)
Procedure: as §1

Escherichia coli 156 = test: as above; type: cell-based; details: 37°, expressed as base, read-out: minimal inhibiting concentration (MIC)
Procedure: as §1

[9] = tested on: Enterobacter aerogenes Co86; test: as above; type: cell-based; details: Klebsiella aerogenes, 37°, expressed as base, read-out: minimal inhibiting concentration (MIC)
Procedure: as §1

Escherichia coli 9 965 = test: as above; type: cell-based; details: 37°, expressed as base, read-out: minimal inhibiting concentration (MIC)
Procedure: as §1

Salmonella anatum 23 348 = test: as above; type: cell-based; details: Salmonella enterica, 23348, 37°, expressed as base, read-out: minimal inhibiting concentration (MIC)
Procedure: as §1

[10] = tested on: Streptococcus faecalis 99 F 74; test: as above; type: cell-based; details: Enterococcus faecalis, 99F74; 18 H incubation, 37°, expressed as base; read-out: minimal inhibiting concentration (MIC)
Procedure: as §1

[11] = tested on: Klebsiella Pneumonia No. 52145; test: In vivo antibacterial activity on experimental Klebsiella Pneumonia infection in mice; details: subcutaneous, 1, 5 and 24 hours after infection, 10 mice
Procedure: The antibacterial activity has been measured in vivo on an experimental Klebsiella Pneumonia infection.
40 male mice with a medium weight of 21 grams were divided in 4 series of 10 mice. An intraperitoneal infection with 0.5 ml of a Klebsiella Pneumonia No. 52145 culture in nutritive medium diluted to one thousandth with sterile water is conducted. Treatment is performed by a subcutaneous administration of the product of Example 2, (Product A) three times, (1 hour, 5 hours and 24 hours) after infection. The mortality rate at different times as indicated in the table was measured as well as the number of mice surviving after 8 days.

[12] = total dose 0,03 mg (as free base)

How did the MIC ([1]; 18 H incubation) turn out when `CNC1CC(C)OC(OC2C(N)CC(N)C(OC3OC(CN)C(O)CC3N)C2O)C1O` [Product A, 4-0-[2',6'-diamino 2', 3', 6'-tridesoxy α, D-ribohexopyranosyl] 6-0-[3"-methylamino 3",4",6"-tridesoxy α, D-xylohexopyranosyl] 2-desoxy streptamine sulfate] was run?
The MIC was 2 µg/mL.

And the MIC ([1]; 24 H incubation)?
Its MIC is 5 µg/mL.

And the MIC ([1]; 48 H incubation)?
Its MIC is 20 µg/mL.

And the MIC (Escherichia coli 9 911; 9911, 18 H incubation)?
The MIC was 0.6 µg/mL.

And the MIC (Escherichia coli 9 911; 9911, 24 H incubation)?
The MIC was 0.6 µg/mL.

And the MIC (Escherichia coli 9 911; 9911, 48 H incubation)?
The MIC was 0.2 µg/mL.

And the MIC ([2]; 18 H incubation)?
Its MIC is 0.4 µg/mL.

And the MIC ([2]; 24 H incubation)?
The MIC was 0.4 µg/mL.

What about the MIC ([2]; 48 H incubation) of the same molecule?
Its MIC is 1 µg/mL.

And the MIC ([3]; 40511, 18 H incubation)?
Its MIC is 0.2 µg/mL.

And the MIC ([3]; 40511, 24 H incubation)?
Its MIC is 0.6 µg/mL.

What about the MIC ([3]; 40511, 48 H incubation) of the same molecule?
Its MIC is 1 µg/mL.

And the MIC ([4]; 38691, 24 H incubation)?
Its MIC is 0.1 µg/mL.

What about the MIC ([4]; 38691, 48 H incubation) of the same molecule?
The MIC was 0.1 µg/mL.

What about the MIC ([5]; 40821, 18 H incubation) of the same molecule?
Its MIC is 0.1 µg/mL.

What about the MIC ([5]; 40821, 24 H incubation) of the same molecule?
Its MIC is 0.1 µg/mL.

And the MIC ([5]; 40821, 48 H incubation)?
Its MIC is 0.1 µg/mL.

And the MIC ([6]; 40481, 18 H incubation)?
The MIC was 0.1 µg/mL.

And the MIC ([6]; 40481, 24 H incubation)?
The MIC was 0.1 µg/mL.

And the MIC ([6]; 40481, 48 H incubation)?
The MIC was 0.2 µg/mL.

What about the MIC ([7]; 18 H incubation) of the same molecule?
Its MIC is 1 µg/mL.

And the MIC ([7]; 24 H incubation)?
The MIC was 5 µg/mL.

What about the MIC ([7]; 48 H incubation) of the same molecule?
Its MIC is 10 µg/mL.

And the MIC ([8]; COB35, 18 H incubation)?
Its MIC is 10 µg/mL.

What about the MIC ([8]; COB35, 24 H incubation) of the same molecule?
Its MIC is 40 µg/mL.

What about the MIC ([8]; COB35, 48 H incubation) of the same molecule?
The MIC was 40 µg/mL.

What about the MIC (Escherichia coli 156; 18 H incubation) of the same molecule?
The MIC was 0.4 µg/mL.

And the MIC (Escherichia coli 156; 24 H incubation)?
The MIC was 0.6 µg/mL.

What about the MIC (Escherichia coli 156; 48 H incubation) of the same molecule?
Its MIC is 1 µg/mL.

What about the MIC ([9]; 18 H incubation) of the same molecule?
The MIC was 0.6 µg/mL.

What about the MIC ([9]; 24 H incubation) of the same molecule?
The MIC was 0.6 µg/mL.

And the MIC ([9]; 48 H incubation)?
The MIC was 0.6 µg/mL.

And the MIC (Escherichia coli 9 965; 9965, 18 H incubation)?
The MIC was 0.6 µg/mL.

What about the MIC (Escherichia coli 9 965; 9965, 24 H incubation) of the same molecule?
Its MIC is 1 µg/mL.

What about the MIC (Escherichia coli 9 965; 9965, 48 H incubation) of the same molecule?
Its MIC is 2 µg/mL.

What about the MIC (Salmonella anatum 23 348; 18 H incubation) of the same molecule?
Its MIC is 1 µg/mL.

And the MIC (Salmonella anatum 23 348; 24 H incubation)?
Its MIC is 3 µg/mL.

What about the MIC (Salmonella anatum 23 348; 48 H incubation) of the same molecule?
Its MIC is 15 µg/mL.

And the MIC [10]?
Its MIC is greater than 20 µg/mL.

And the “Mortality at 5 H” value [11, 12]?
The value was 1.

And the “Survived to the eighth day (number of mice)” value (from here on “Survived to the eighth day”) [11, 12]?
Its value is 9 mice.

What about the “Survived to the eighth day” value ([11]; total dose 0,05 mg (as free base)) of the same molecule?
Its value is 10 mice.

And the “Survived to the eighth day” value ([11]; total dose 0,075 mg (as free base))?
Its value is 10 mice.
